Results published in patent US11905255B1, “Solid state forms of (S)-2-(((S)-6,8-difluoro-1,2,3,4-tetrahydronaphthalen-2-yl)amino)-N-(1-(2-methyl-1-(neopentylamino)propan-2-yl)-1H-imidazol-4-yl)pentanamide and uses thereof” (Pfizer Inc., priority 2019, dated 2024).
Like-named read-outs stand apart in the source and are kept apart here. Values belong to the compound of their own block, whether it stands above or below them.

Columns and labels:
[1] = Drying experiments on selected materials, solid form by XRPD; format: physicochemical
Source text: Table 6 summarizes the drying conditions for selected materials. • (a) Temperature, RH, and duration of experiments are approximate.

[2] = 3 weeks slurry, gravimetric
Method: After approximately 24 hours, solids were isolated by centrifugation using eppendorf centrifuge tubes equipped with a 0.45 μm nylon filter. […] Equilibrium solubility of solids isolated were determined gravimetrically as follows. Measured aliquots of mother liquor solutions from the 3-week slurries were place in pre-weighed aluminum TGA pans. Subsequently, solvents were evaporated under ambient conditions or using vacuum. Remaining solids were weighed. • (a) Experiments were conducted for a total of ˜1 week and ˜3 weeks, both with solvent replacement after ˜1 day of slurrying. Solvent ratios (v/v) and duration of experiments are approximate.

[3] = Method: Weighed samples of material were treated with aliquots of specified solvents at ambient temperature. Samples were typically sonicated between additions to facilitate dissolution. Complete dissolution was observed through visual inspection. Solubility was calculated based on the total amount of solvent added to achieve complete dissolution and may be greater than the value reported due to incremental solvent addition and the inherent kinetics of dissolution. If dissolution was not observed, values are reported as “less than”. If dissolution was observed upon the first addition of solvent, values are reported as “greater than”.
• (a) Solubility estimated using solvent addition method via visual assessment of samples. Values are rounded to nearest whole number and reported as “<” if dissolution was not observed. • (b) non-cGMP samples.

XRPD Results after drying ([1]; Dried on P2O5, RT, 17 days, RH at prep.: 3%, RH at run: 43%, cell continues: selected peaks slightly shifted): Consistent with Form D,
SMILES: Br.Br.CCC[C@H](N[C@H]1CCc2cc(F)cc(F)c2C1)C(=O)Nc1cn(C(C)(C)CNCC(C)(C)C)cn1 [Form D, (S)-2-(((S)-6,8-difluoro-1,2,3,4-tetrahydronaphthalen-2-yl)amino)-N-(1-(2-methyl-1-(neopentylamino)propan-2-yl)-1H-imidazol-4-yl)pentanamide]

Solubility (b) ([2]; DMF/ACN (65/35), ambient): 10 mg/mL
Solubility (b) ([2]; DMF/IPA (60/40), ambient): 13 mg/mL
Solubility (b) ([2]; DMF/MIBK (85/15), ambient): 19 mg/mL
Solubility (b) ([2]; Dioxane/H2O (70/30), ambient): 24 mg/mL
Solubility (b) ([2]; EtOH/H2O (60/40), ambient): 36 mg/mL
Solubility (b) ([2]; H2O, ambient): 14 mg/mL
Solubility (b) ([2]; MEK/DMF (20/80), ambient): 17 mg/mL
Solubility (b) ([2]; MeOH (anhydrous), 2-8° C. (cold room)): 13 mg/mL
Solubility (b) ([2]; MeOH/Acetone (anhydrous) (50/50), ambient): 7 mg/mL
Solubility (b) ([2]; MeOH/EtOAc (anhydrous) (70/30), ambient): 6 mg/mL
Solubility (b) ([2]; MeOH/H2O (20/80), ambient): 17 mg/mL
Solubility (b) ([2]; NMP/Acetone (anhydrous) (85/15), ambient): 36 mg/mL
Solubility (b) ([2]; PG, ambient): 8 mg/mL
Solubility (b) ([2]; THF/H2O (85/15), ambient): 25 mg/mL
SMILES: Br.Br.CCC[C@H](N[C@H]1CCc2cc(F)cc(F)c2C1)C(=O)Nc1cn(C(C)(C)CNCC(C)(C)C)cn1 [Form A, (S)-2-(((S)-6,8-difluoro-1,2,3,4-tetrahydronaphthalen-2-yl)amino)-N-(1-(2-methyl-1-(neopentylamino)propan-2-yl)-1H-imidazol-4-yl)pentanamide]

XRPD Results after drying ([1]; VO, 75° C., 1 day): Consistent with Form D
XRPD Results after drying ([1]; VO, 77° C., 1 day): Consistent with Form F;
SMILES: Br.Br.CCC[C@H](N[C@H]1CCc2cc(F)cc(F)c2C1)C(=O)Nc1cn(C(C)(C)CNCC(C)(C)C)cn1 [Form F, (S)-2-(((S)-6,8-difluoro-1,2,3,4-tetrahydronaphthalen-2-yl)amino)-N-(1-(2-methyl-1-(neopentylamino)propan-2-yl)-1H-imidazol-4-yl)pentanamide]

Solubility Estimate (a) [3]: <1 mg/mL
SMILES: Br.Br.CCC[C@H](N[C@H]1CCc2cc(F)cc(F)c2C1)C(=O)Nc1cn(C(C)(C)CNCC(C)(C)C)cn1 [dihydrobromide salt of Compound 1, dihydrobromide salt of (s)-2-(((s)-6,8-difluoro-1,2,3,4-tetrahydronaphthalen-2-yl)amino)-n-(1-(2-methyl-1-(neopentylamino)propan-2-yl)-1h-imidazol-4-yl)pentanamide]
